A short description of the data set: Hygroscopicity: % weight change (w/w) against target relative humidity at 25 degrees C (moisture sorption isotherm). Type of data set: physicochemical. The procedure:
The hygroscopicities of three samples of the compound of formula (I) monohydrate prepared in accordance with the above method were tested by measuring their % weight change (w/w) over a target relative humidity band of 0 to 90% at 25 degrees C.
To make these measurements, the following instruments and parameters were used: • Hiden IGASORP, Serial: IGA SA-040; • Hiden Intelligent Analyser, Model: HAS-022-120E, Serial: HALIGA-0042; • Flow=495 ml/min
The hydroscopicity of a sample of the compound of formula (I) trihydrate prepared in accordance with the above method was tested by measuring % weight change (w/w) over a target relative humidity band of 0 to 90% at 25° C.
The hygroscopicity of a sample of the dihydrochloride salt prepared in accordance with the above method was tested by measuring its % weight change (w/w) over a target relative humidity band of 30 to 80% at 25 degrees C.

Take `CC(=N)NCCSCC[C@H](N)C(=O)O.Cl` [dihydrochloride salt, (2S)-2-amino4-{[2-(ethanimidoylamino)ethyl]thio}butanoic acid, compound with hydrochloric acid]: where the note is “above 50% relative humidity, FIG. 4”, the “uptake of atmospheric moisture” value is given as “rapid uptake of atmospheric moisture”. For the same compound, the mass change result reads like this: (at 55% relative humidity) “about 11%”; (at 60% relative humidity) “about 24%”; (at 65% relative humidity) “about 32%”; (over a relative humidity range of 30-75%) “about 47%”.
Take `CC(=N)NCCSCC[C@H](N)C(=O)O.O.O=P(O)(O)O` [compound of formula (I) monohydrate, (2S)-2-amino-4-{[2-(ethanimidoylamino)ethyl]thio}butanoic acid, compound with phosphoric acid, monohydrate]: the “uptake of atmospheric moisture” value (below a relative humidity of 70%, three samples, FIGS. 1 to 3) is recorded as “no significant uptake of atmospheric moisture”.

The values are drawn from patent US7317040B2, “Nitric oxide synthase inhibitor phosphate salt” (SmithKline Beecham Corporation, priority 2000, dated 2008).
